The target in the test is T1, Prostaglandin E synthase (Homo sapiens, UniProt O14684).
T1 sequence (O14684 whole entry): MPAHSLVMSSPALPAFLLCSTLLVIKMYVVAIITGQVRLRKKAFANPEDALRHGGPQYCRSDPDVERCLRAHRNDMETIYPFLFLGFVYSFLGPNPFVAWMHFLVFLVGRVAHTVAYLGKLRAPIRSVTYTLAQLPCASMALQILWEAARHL
The test is described as follows: Biochemical Assay. As to conditions: pH 6.8. The protocol:
A solution of test compound was added to a diluted microsome preparation containing human mPGES-1 and pre-incubated for 15 minutes in potassium phosphate buffer pH 6.8 with cofactor glutathione (GSH). Corresponding solutions without test compound were used as positive controls, and corresponding solutions without test compound and without microsomes were used as negative controls. The enzymatic reaction was then started by addition of the substrate PGH2 in an organic solution (dry acetonitrile).The typical reaction conditions of the enzymatic reaction were thus: Test compound: ranging from 60 uM to 0.002 uM, or zero in positive and negative controls; potassium phosphate buffer pH 6.8: 50 mM; GSH: 2.5 mM; mPGES-1-containing microsomes: 2 ug/mL (sample and positive controls) or 0 ug/mL (negative control); PGH2: 10.8 uM; Acetonitrile: 7.7% (v/v); DMSO: 0.6% (v/v). The reaction was stopped after one minute by adding an acidic solution (pH 1.9) of ferric chloride.

With `COc1ccc(Br)cc1/C=C/S(=O)(=O)Nc1ccc(C#CC(C)(C)O)cc1S(N)(=O)=O` [US9145380, 179], half-maximal inhibition (IC50) was put at 6.2 µM.

In general, IC50 refers to the concentration at which inhibition is half-maximal. Read a high IC50 as weaker potency in that assay.

For the origin of these results see BindingDB's records for patent US9145380 (Astrazeneca, 2015).
